# Results from patent US12577245B2, “Sulfonyl benzamide derivatives as Bcl-2 inhibitors” (ASCENTAGE PHARMA (SUZHOU) CO., LTD., priority 2021, dated 2026).
# Read-outs that look alike come from different tables or passages of the source.
# Assays:
# [1] = target: Bcl-2 WT (Homo sapiens, UniProt P10415); assay: Bcl-2 WT inhibition, fluorescence polarization (Flu-BIM tracer) binding assay
# [2] = system: RS4; 11Bcl-2-G101V cells; assay: CellTiter-Glo (CTG) cell viability assay in RS4;11-Bcl-2-G101V cells; type: cell-based; conditions: 72 h, 10% FBS, 3 days
# Method: RS4; 11Bcl-2-G101V, RS4; 11Bcl-2-D103E, RS4; 11Bcl-2-V156D and RS4; 11Bcl-2-G101V-D103E cells were obtained from Cobioer Biosciences. Cells were maintained in the RPMI-1640 medium with 10% FBS, 1% P/S and puromycin (1 μg/mL) at 37° C. and an atmosphere of 5% CO2.
# • The effect of representative Compounds of the Disclosure on cell viability was determined using CellTiter-Glo® (CTG) luminescent cell viability assay (Promega, USA) according to the manufacturer's instructions. 95 μL of cell suspension (10000 cells/well) in culture medium were seeded into 96-well plates and cultured 4 hours. Each tested compound was serially diluted in blank culture medium, and 5 μL of the compound dilution was added to the corresponding well of the cell plate. After the addition of the tested compound, the cells were incubated at 37° C. in an atmosphere of 5% CO2 for 3 days. At the end of 3 days, 30 μL of CTG solution was added to each well of the plate and mix contents for 2 minutes on an orbital shaker. Allow the plate to incubate at room temperature for 15 mins to stabilize signal and record RLU on the Biotek plate reader. The readings were normalized to the vehicle cells, and the IC50 was calculated using GraphPad Prism 8 software.
# [3] = system: MV-4-11 cells; assay: CCK-8 cell viability assay in MV-4-11 cells; type: cell-based; conditions: Homo sapiens, MV4-11, 72 h, 10% FBS, 3 days
# Method: MV-4-11 cells were obtained from University of Michigan. Cells were maintained in the RPMI-1640 medium with 10% FBS and 1% P/S at 37° C. and an atmosphere of 5% CO2.
# • The effect of representative Compounds of the Disclosure on cell viability was determined using Cell Counting Kit-8 (CCK-8) assay (Shanghai Life iLab Biotech) according to the manufacturer's instructions. Each tested compound was serially diluted in culture medium, and 100 μL of the compound dilution was added to the corresponding well of the cell plate. 100 μL of MV-4-11 cell suspension (20000 cells/well) in culture medium were seeded into 96-well plates. The cells were incubated at 37° C. in an atmosphere of 5% CO2 for 3 days. At the end of 3 days, 20 μL of CCK-8 solution was added to each well of the plate and incubated for 1-4 hours. The plates were read at 450 nm on the Biotek plate reader. The readings were normalized to the vehicle cells, and the IC50 was calculated using GraphPad Prism 8 software.
# [4] = FP, 20 nM Bcl2, 5 nM Flu-BIM, 1 h incubation, read-out: Bcl-2 w.t. (FP)
# Sequence of Bcl-2 WT (P10415 whole entry): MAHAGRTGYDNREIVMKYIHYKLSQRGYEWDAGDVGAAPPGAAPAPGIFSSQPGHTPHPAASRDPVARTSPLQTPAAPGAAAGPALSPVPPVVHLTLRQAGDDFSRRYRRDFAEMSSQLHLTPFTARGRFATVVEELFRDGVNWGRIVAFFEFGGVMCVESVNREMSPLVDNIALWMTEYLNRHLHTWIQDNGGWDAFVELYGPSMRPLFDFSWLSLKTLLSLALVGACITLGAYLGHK
SMILES,"IC50 [1, 4] [nM]",IC50 [2] [nM],IC50 [3] [nM],IC50 [1] [nM]
"Cc1sccc1C1=C(CN2CCN(c3ccc(C(=O)NS(=O)(=O)c4ccc(NCC5CCOCC5)c([N+](=O)[O-])c4)c(Oc4cnc5[nH]ccc5c4)c3)CC2)CCC(C)(C)C1 [Example 1, 2-((1H-pyrrolo[2,3-b]pyridin-5-yl)oxy)-4-(4-((4,4-dimethyl-2-(2-methylthiophen-3-yl)cyclohex-1-en-1-yl)methyl)piperazin-1-yl)-N-((3-nitro-4-(((tetrahydro-2H-pyran-4-yl)methyl)amino)phenyl)sulfonyl)benzamide]",15.7,1170,27,–
"Cc1cscc1C1=C(CN2CCN(c3ccc(C(=O)NS(=O)(=O)c4ccc(NCC5CCOCC5)c([N+](=O)[O-])c4)c(Oc4cnc5[nH]ccc5c4)c3)CC2)CCC(C)(C)C1 [Example 2, 2-((1H-pyrrolo[2,3-b]pyridin-5-yl)oxy)-4-(4-((4,4-dimethyl-2-(4-methylthiophen-3-yl)cyclohex-1-en-1-yl)methyl)piperazin-1-yl)-N-((3-nitro-4-(((tetrahydro-2H-pyran-4-yl)methyl)amino)phenyl)sulfonyl)benzamide]",15.9,1300,28,–
"CC1(C)CCC(CN2CCN(c3ccc(C(=O)NS(=O)(=O)c4ccc(NCC5CCOCC5)c([N+](=O)[O-])c4)c(Oc4cnc5[nH]ccc5c4)c3)CC2)=C(c2csc(C(F)(F)F)c2)C1 [Example 3, 2-((1H-pyrrolo[2,3-b]pyridin-5-yl)oxy)-4-(4-((4,4-dimethyl-2-(5-(trifluoromethyl)thiophen-3-yl)cyclohex-1-en-1-yl)methyl)piperazin-1-yl)-N-((3-nitro-4-(((tetrahydro-2H-pyran-4-yl)methyl)amino)phenyl)sulfonyl)benzamide]",27.7,3800,214,–
"Cc1ccc(C2=C(CN3CCN(c4ccc(C(=O)NS(=O)(=O)c5ccc(NCC6CCOCC6)c([N+](=O)[O-])c5)c(Oc5cnc6[nH]ccc6c5)c4)CC3)CCC(C)(C)C2)s1 [Example 6, 2-((1H-pyrrolo[2,3-b]pyridin-5-yl)oxy)-4-(4-((4,4-dimethyl-2-(5-methylthiophen-2-yl)cyclohex-1-en-1-yl)methyl)piperazin-1-yl)-N-((3-nitro-4-(((tetrahydro-2H-pyran-4-yl)methyl)amino)phenyl)sulfonyl)benzamide]",16.2,3940,66,–
"CC(C)c1csc(C2=C(CN3CCN(c4ccc(C(=O)NS(=O)(=O)c5ccc(NCC6CCOCC6)c([N+](=O)[O-])c5)c(Oc5cnc6[nH]ccc6c5)c4)CC3)CCC(C)(C)C2)c1 [Example 8, 2-((1H-pyrrolo[2,3-b]pyridin-5-yl)oxy)-4-(4-((2-(4-isopropylthiophen-2-yl)-4,4-dimethylcyclohex-1-en-1-yl)methyl)piperazin-1-yl)-N-((3-nitro-4-(((tetrahydro-2H-pyran-4-yl)methyl)amino)phenyl)sulfonyl)benzamide]",17.7,1440,21,–
"CC(C)c1csc(C2=C(CN3CCN(c4ccc(C(=O)NS(=O)(=O)c5ccc(NC[C@H]6COCCO6)c([N+](=O)[O-])c5)c(Oc5cnc6[nH]ccc6c5)c4)CC3)CCC(C)(C)C2)c1 [Example 10, (S)—N-((4-(((1,4-dioxan-2-yl)methyl)amino)-3-nitrophenyl)sulfonyl)-2-((1H-pyrrolo[2,3-b]pyridin-5-yl)oxy)-4-(4-((2-(4-isopropylthiophen-2-yl)-4,4-dimethylcyclohex-1-en-1-yl)methyl)piperazin-1-yl)benzamide]",20.3,1040,16,–
"CC(C)c1sccc1C1=C(CN2CCN(c3ccc(C(=O)NS(=O)(=O)c4ccc(NCC5CCOCC5)c([N+](=O)[O-])c4)c(Oc4cnc5[nH]ccc5c4)c3)CC2)CCC(C)(C)C1 [Example 11, 2-((1H-pyrrolo[2,3-b]pyridin-5-yl)oxy)-4-(4-((2-(2-isopropylthiophen-3-yl)-4,4-dimethylcyclohex-1-en-1-yl)-methyl)piperazin-1-yl)-N-((3-nitro-4-(((tetrahydro-2H-pyran-4-yl)methyl)amino)-phenyl)sulfonyl)benzamide]",20.9,2360,54,–
"CC1(C)CCC(CN2CCN(c3ccc(C(=O)NS(=O)(=O)c4ccc(NC[C@H]5COCCO5)c([N+](=O)[O-])c4)c(Oc4cnc5[nH]ccc5c4)c3)CC2)=C(c2cc3c(s2)CCN(c2ccc(F)cc2)C3)C1 [Example 15, (S)—N-((4-(((1,4-dioxan-2-yl)methyl)amino)-3-nitrophenyl)sulfonyl)-2-((1H-pyrrolo[2,3-b]pyridin-5-yl)oxy)-4-(4-((2-(5-(4-fluorophenyl)-4,5,6,7-tetrahydrothieno[3,2-c]pyridin-2-yl)-4,4-dimethylcyclohex-1-en-1-yl)methyl)piperazin-1-yl)benzamide]",27.6,8810,466,–
"CC1(C)CCC(CN2CCN(c3ccc(C(=O)NS(=O)(=O)c4ccc(NC[C@H]5CC[C@](C)(O)CC5)c([N+](=O)[O-])c4)c(Oc4cnc5[nH]ccc5c4)c3)CC2)=C(c2cc3c(s2)CCN(c2ccc(F)cc2)C3)C1 [Example 16, 2-((1H-pyrrolo[2,3-b]pyridin-5-yl)oxy)-4-(4-((2-(5-(4-fluorophenyl)-4,5,6,7-tetrahydrothieno[3,2-c]pyridin-2-yl)-4,4-dimethylcyclohex-1-en-1-yl)methyl)piperazin-1-yl)-N-((4-((((1r,4r)-4-hydroxy-4-methylcyclohexyl)methyl)amino)-3-nitrophenyl)sulfonyl)benzamide]",42,5630,445,–
"CC1(C)CCC(CN2CCN(c3ccc(C(=O)NS(=O)(=O)c4ccc(NC[C@H]5COCCO5)c([N+](=O)[O-])c4)c(Oc4cnc5[nH]ccc5c4)c3)CC2)=C(c2cc(C(=O)Nc3ccccc3)cs2)C1 [Example 17, (S)-5-(2-((4-(4-(((4-(((1,4-dioxan-2-yl)methyl)amino)-3-nitrophenyl)sulfonyl)carbamoyl)-3-((1H-pyrrolo[2,3-b]pyridin-5-yl)oxy)phenyl)piperazin-1-yl)methyl)-5,5-dimethylcyclohex-1-en-1-yl)-N-phenylthiophene-3-carboxamide]",–,4250,262,30.9
"CC1(C)CCC(CN2CCN(c3ccc(C(=O)NS(=O)(=O)c4ccc(NC[C@H]5CC[C@](C)(O)CC5)c([N+](=O)[O-])c4)c(Oc4cnc5[nH]ccc5c4)c3)CC2)=C(c2cc(-c3c(Cl)cc(C(C)(C)O)cc3Cl)cs2)C1 [Example 66, 2-((1H-pyrrolo[2,3-b]pyridin-5-yl)oxy)-4-(4-((2-(4-(2,6-dichloro-4-(2-hydroxypropan-2-yl)phenyl)thiophen-2-yl)-4,4-dimethylcyclohex-1-en-1-yl)methyl)piperazin-1-yl)-N-((4-((((1r,4r)-4-hydroxy-4-methylcyclohexyl)methyl)amino)-3-nitrophenyl)sulfonyl)benzamide]",–,361,132,–
"COC(C)(C)c1ccc(-c2csc(C3=C(CN4CCN(c5ccc(C(=O)NS(=O)(=O)c6ccc(NC[C@H]7CC[C@](C)(O)CC7)c([N+](=O)[O-])c6)c(Oc6cnc7[nH]ccc7c6)c5)CC4)CCC(C)(C)C3)c2)c(F)c1 [Example 76, 2-((1H-pyrrolo[2,3-b]pyridin-5-yl)oxy)-4-(4-((2-(4-(2-fluoro-4-(2-methoxypropan-2-yl)phenyl)thiophen-2-yl)-4,4-dimethylcyclohex-1-en-1-yl)methyl)piperazin-1-yl)-N-((4-((((1r,4r)-4-hydroxy-4-methylcyclohexyl)methyl)amino)-3-nitrophenyl)sulfonyl)benzamide]",–,1700,95,–
"CC1(C)CCC(CN2CCN(c3ccc(C(=O)NS(=O)(=O)c4ccc(NC[C@H]5CC[C@](C)(O)CC5)c([N+](=O)[O-])c4)c(Oc4cnc5[nH]ccc5c4)c3)CC2)=C(c2cc(-c3c(F)cc(C4(O)CCC4)cc3F)cs2)C1 [Example 77, 2-((1H-pyrrolo[2,3-b]pyridin-5-yl)oxy)-4-(4-((2-(4-(2,6-difluoro-4-(1-hydroxycyclobutyl)phenyl)thiophen-2-yl)-4,4-dimethylcyclohex-1-en-1-yl)methyl)piperazin-1-yl)-N-((4-((((1r,4r)-4-hydroxy-4-methylcyclohexyl)methyl)amino)-3-nitrophenyl)sulfonyl)benzamide]",–,490,25,–
